Experiments:
Assay in all cases: relative viability (nuclei count vs DMSO), 5 days (fraction); higher = more cells survive
EKVX = tested on: EKVX
Outline: (§1)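 One day after seeding in 1536-well plates, lung cancer cell lines were dosed by pin tool. Dosing was either single-drug or a fixed anchor-drug dose plus five library-drug doses (not always all listed) in √10 steps. After 5 days, nuclei were stained in one fix-and-stain step and counted on 4× images, and relative viability is the nuclei count of treated wells over that of vehicle wells, given as the median of duplicate plates.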

NCI-H3122 = tested on: NCI-H3122
Outline: as §1

NCI-H1755 = tested on: NCI-H1755
Outline: as §1

NCI-H1734 = tested on: NCI-H1734
Outline: as §1

NCI-H1993 = tested on: NCI-H1993
Outline: as §1

NCI-H1944 = tested on: NCI-H1944
Outline: as §1

NCI-H1975 = tested on: NCI-H1975
Outline: as §1

COR-L23 = tested on: COR-L23
Outline: as §1

HCC-15 = tested on: HCC-15
Outline: as §1

BEN = tested on: BEN
Outline: as §1

HCC-827 = tested on: HCC-827
Outline: as §1

COR-L 105 = tested on: COR-L 105
Outline: as §1

HCC-78 = tested on: HCC-78
Outline: as §1

LU99A = tested on: LU99A
Outline: as §1

HARA = tested on: HARA
Outline: as §1

NCI-H596 = tested on: NCI-H596
Outline: as §1

201T = tested on: 201T
Outline: as §1

LXF-289 = tested on: LXF-289
Outline: as §1

SK-LU-1 = tested on: SK-LU-1
Outline: as §1

NCI-H1703 = tested on: NCI-H1703
Outline: as §1

HCC-366 = tested on: HCC-366
Outline: as §1

**Q.** For `CCCCCCCCCCCC1=C(O)C(=O)C=C(O)C1=O` [Embelin] + C[C@]1(O)C[C@@H](c2nc(-c3ccc4ccc(-c5ccccc5)nc4c3)c3c(N)nccn32)C1 [Linsitinib] (partner 1 µM), which relative viability (EKVX; first compound 0.08 µM) is on record?
**A.** Its relative viability is 0.967.

**Q.** What about the relative viability (EKVX; first compound 0.8 µM) of the same compound?
**A.** Its relative viability is 1.09.

**Q.** What about the relative viability (EKVX; first compound 2.53 µM) of the same compound?
**A.** The relative viability was 1.2.

**Q.** And the relative viability (EKVX; first compound 8 µM)?
**A.** The relative viability was 1.06.

**Q.** And the relative viability (NCI-H3122; first compound 0.08 µM)?
**A.** The relative viability was 1.01.

**Q.** And the relative viability (NCI-H3122; first compound 0.8 µM)?
**A.** Its relative viability is 0.946.

**Q.** And the relative viability (NCI-H3122; first compound 2.53 µM)?
**A.** Its relative viability is 1.01.

**Q.** And the relative viability (NCI-H3122; first compound 8 µM)?
**A.** Its relative viability is 1.12.

**Q.** What about the relative viability (NCI-H1755; first compound 0.08 µM) of the same compound?
**A.** The relative viability was 1.03.

**Q.** And the relative viability (NCI-H1755; first compound 0.8 µM)?
**A.** The relative viability was 1.06.

**Q.** And the relative viability (NCI-H1755; first compound 2.53 µM)?
**A.** Its relative viability is 1.07.

**Q.** What about the relative viability (NCI-H1755; first compound 8 µM) of the same compound?
**A.** Its relative viability is 0.98.

**Q.** What about the relative viability (NCI-H1734; first compound 0.08 µM) of the same compound?
**A.** Its relative viability is 0.832.

**Q.** What about the relative viability (NCI-H1734; first compound 0.8 µM) of the same compound?
**A.** Its relative viability is 1.05.

**Q.** And the relative viability (NCI-H1734; first compound 2.53 µM)?
**A.** The relative viability was 0.927.

**Q.** And the relative viability (NCI-H1734; first compound 8 µM)?
**A.** The relative viability was 0.876.

**Q.** And the relative viability (NCI-H1993; first compound 0.08 µM)?
**A.** Its relative viability is 0.734.

**Q.** What about the relative viability (NCI-H1993; first compound 0.8 µM) of the same compound?
**A.** The relative viability was 0.807.

**Q.** What about the relative viability (NCI-H1993; first compound 2.53 µM) of the same compound?
**A.** Its relative viability is 0.764.

**Q.** What about the relative viability (NCI-H1993; first compound 8 µM) of the same compound?
**A.** Its relative viability is 0.771.

**Q.** And the relative viability (NCI-H1944; first compound 0.08 µM)?
**A.** Its relative viability is 1.15.

**Q.** And the relative viability (NCI-H1944; first compound 0.8 µM)?
**A.** The relative viability was 1.39.

**Q.** And the relative viability (NCI-H1944; first compound 2.53 µM)?
**A.** The relative viability was 1.17.

**Q.** And the relative viability (NCI-H1944; first compound 8 µM)?
**A.** The relative viability was 1.12.

**Q.** And the relative viability (NCI-H1975; first compound 0.08 µM)?
**A.** The relative viability was 0.976.

**Q.** And the relative viability (NCI-H1975; first compound 0.8 µM)?
**A.** The relative viability was 0.994.

**Q.** And the relative viability (NCI-H1975; first compound 2.53 µM)?
**A.** Its relative viability is 1.04.

**Q.** And the relative viability (NCI-H1975; first compound 8 µM)?
**A.** Its relative viability is 0.973.

**Q.** What about the relative viability (COR-L23; first compound 0.08 µM) of the same compound?
**A.** The relative viability was 0.896.

**Q.** And the relative viability (COR-L23; first compound 0.8 µM)?
**A.** The relative viability was 1.08.

**Q.** And the relative viability (COR-L23; first compound 2.53 µM)?
**A.** Its relative viability is 0.962.

**Q.** And the relative viability (COR-L23; first compound 8 µM)?
**A.** The relative viability was 1.05.

**Q.** And the relative viability (HCC-15; first compound 0.08 µM)?
**A.** The relative viability was 0.922.

**Q.** And the relative viability (HCC-15; first compound 0.8 µM)?
**A.** The relative viability was 0.895.

**Q.** And the relative viability (HCC-15; first compound 2.53 µM)?
**A.** The relative viability was 0.996.

**Q.** What about the relative viability (HCC-15; first compound 8 µM) of the same compound?
**A.** The relative viability was 0.905.

**Q.** What about the relative viability (BEN; first compound 0.08 µM) of the same compound?
**A.** The relative viability was 0.976.

**Q.** And the relative viability (BEN; first compound 0.8 µM)?
**A.** Its relative viability is 1.25.

**Q.** And the relative viability (BEN; first compound 2.53 µM)?
**A.** The relative viability was 1.09.

**Q.** What about the relative viability (BEN; first compound 8 µM) of the same compound?
**A.** The relative viability was 0.898.

**Q.** And the relative viability (HCC-827; first compound 0.08 µM)?
**A.** The relative viability was 0.997.

**Q.** What about the relative viability (HCC-827; first compound 0.8 µM) of the same compound?
**A.** The relative viability was 0.949.

**Q.** And the relative viability (HCC-827; first compound 2.53 µM)?
**A.** Its relative viability is 0.992.

**Q.** What about the relative viability (HCC-827; first compound 8 µM) of the same compound?
**A.** Its relative viability is 1.01.

**Q.** And the relative viability (COR-L 105; first compound 0.08 µM)?
**A.** Its relative viability is 1.02.

**Q.** What about the relative viability (COR-L 105; first compound 0.8 µM) of the same compound?
**A.** The relative viability was 1.33.

**Q.** What about the relative viability (COR-L 105; first compound 2.53 µM) of the same compound?
**A.** Its relative viability is 0.88.

**Q.** And the relative viability (COR-L 105; first compound 8 µM)?
**A.** Its relative viability is 0.874.

**Q.** What about the relative viability (HCC-78; first compound 0.08 µM) of the same compound?
**A.** Its relative viability is 0.516.

**Q.** What about the relative viability (HCC-78; first compound 0.8 µM) of the same compound?
**A.** The relative viability was 0.623.

**Q.** And the relative viability (HCC-78; first compound 2.53 µM)?
**A.** Its relative viability is 0.52.

**Q.** What about the relative viability (HCC-78; first compound 8 µM) of the same compound?
**A.** Its relative viability is 0.413.

**Q.** And the relative viability (LU99A; first compound 0.08 µM)?
**A.** Its relative viability is 0.537.

**Q.** What about the relative viability (LU99A; first compound 0.8 µM) of the same compound?
**A.** The relative viability was 0.618.

**Q.** And the relative viability (LU99A; first compound 2.53 µM)?
**A.** Its relative viability is 0.552.

**Q.** And the relative viability (LU99A; first compound 8 µM)?
**A.** Its relative viability is 0.472.

**Q.** What about the relative viability (HARA; first compound 0.08 µM) of the same compound?
**A.** Its relative viability is 0.972.

**Q.** What about the relative viability (HARA; first compound 0.8 µM) of the same compound?
**A.** The relative viability was 0.914.

**Q.** And the relative viability (HARA; first compound 2.53 µM)?
**A.** Its relative viability is 0.996.

**Q.** What about the relative viability (HARA; first compound 8 µM) of the same compound?
**A.** The relative viability was 1.16.

**Q.** What about the relative viability (NCI-H596; first compound 0.08 µM) of the same compound?
**A.** The relative viability was 1.11.

**Q.** And the relative viability (NCI-H596; first compound 0.8 µM)?
**A.** Its relative viability is 1.14.

**Q.** And the relative viability (NCI-H596; first compound 2.53 µM)?
**A.** The relative viability was 1.25.

**Q.** And the relative viability (NCI-H596; first compound 8 µM)?
**A.** Its relative viability is 1.05.

**Q.** And the relative viability (201T; first compound 0.08 µM)?
**A.** The relative viability was 1.06.

**Q.** And the relative viability (201T; first compound 0.8 µM)?
**A.** The relative viability was 1.1.

**Q.** What about the relative viability (201T; first compound 2.53 µM) of the same compound?
**A.** Its relative viability is 1.09.

**Q.** What about the relative viability (201T; first compound 8 µM) of the same compound?
**A.** The relative viability was 1.01.

**Q.** And the relative viability (LXF-289; first compound 0.08 µM)?
**A.** Its relative viability is 0.991.

**Q.** And the relative viability (LXF-289; first compound 0.8 µM)?
**A.** Its relative viability is 0.957.

**Q.** And the relative viability (LXF-289; first compound 2.53 µM)?
**A.** Its relative viability is 1.

**Q.** And the relative viability (LXF-289; first compound 8 µM)?
**A.** Its relative viability is 1.01.

**Q.** And the relative viability (SK-LU-1; first compound 0.08 µM)?
**A.** Its relative viability is 1.17.

**Q.** What about the relative viability (SK-LU-1; first compound 0.8 µM) of the same compound?
**A.** Its relative viability is 1.28.

**Q.** What about the relative viability (SK-LU-1; first compound 2.53 µM) of the same compound?
**A.** Its relative viability is 1.1.

**Q.** What about the relative viability (SK-LU-1; first compound 8 µM) of the same compound?
**A.** Its relative viability is 0.993.

**Q.** What about the relative viability (NCI-H1703; first compound 0.08 µM) of the same compound?
**A.** The relative viability was 0.983.

**Q.** What about the relative viability (NCI-H1703; first compound 2.53 µM) of the same compound?
**A.** Its relative viability is 0.634.

**Q.** And the relative viability (NCI-H1703; first compound 8 µM)?
**A.** Its relative viability is 0.599.

**Q.** What about the relative viability (HCC-366; first compound 0.08 µM) of the same compound?
**A.** The relative viability was 0.697.

**Q.** What about the relative viability (HCC-366; first compound 0.8 µM) of the same compound?
**A.** Its relative viability is 0.726.

**Q.** And the relative viability (HCC-366; first compound 2.53 µM)?
**A.** The relative viability was 0.846.

**Q.** What about the relative viability (HCC-366; first compound 8 µM) of the same compound?
**A.** Its relative viability is 0.49.
